This is an account of results in patent US5516795A, “Heteroatom substituted propanyl derivatives having 5-lipoxygenase inhibitory activity” (Abbott Laboratories, priority 1994, dated 1996).

In this test the target is T1, 5-Lipoxygenase (Homo sapiens, UniProt P09917).
T1 construct: Human heparinized whole blood was preincubated with test compounds; endogenous in cells; host or cells: human heparinized whole blood (endogenous enzyme of the blood cells)
T1 sequence (P09917 1-674): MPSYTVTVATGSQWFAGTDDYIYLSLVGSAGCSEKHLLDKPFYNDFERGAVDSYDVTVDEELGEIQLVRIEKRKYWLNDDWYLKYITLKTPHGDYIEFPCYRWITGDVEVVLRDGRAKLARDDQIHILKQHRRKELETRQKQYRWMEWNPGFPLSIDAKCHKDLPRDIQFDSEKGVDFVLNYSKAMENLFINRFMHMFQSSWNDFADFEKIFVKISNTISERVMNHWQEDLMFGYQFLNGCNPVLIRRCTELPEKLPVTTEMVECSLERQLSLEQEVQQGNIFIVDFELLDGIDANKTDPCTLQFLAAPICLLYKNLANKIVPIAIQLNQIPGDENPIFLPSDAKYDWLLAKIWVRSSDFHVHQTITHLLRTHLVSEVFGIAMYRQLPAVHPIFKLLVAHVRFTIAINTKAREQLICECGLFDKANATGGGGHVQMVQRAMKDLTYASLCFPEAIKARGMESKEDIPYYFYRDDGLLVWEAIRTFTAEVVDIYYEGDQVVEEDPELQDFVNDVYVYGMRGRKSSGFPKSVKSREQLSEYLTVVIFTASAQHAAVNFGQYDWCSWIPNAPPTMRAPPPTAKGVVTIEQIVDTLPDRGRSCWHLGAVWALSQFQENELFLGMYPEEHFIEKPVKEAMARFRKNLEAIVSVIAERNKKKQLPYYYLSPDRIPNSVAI
Put plainly: Inhibition of calcium ionophore A23187-induced LTB4 biosynthesis in human whole blood (5-lipoxygenase inhibition). Type of test: cell-based. The conditions noted are these: A23187 8.3 μM; for inhibition at 0.1 µM: @ 0.10 μM. The protocol:
Lipoxygenase Inhibition Determination
Inhibition of leukotriene biosynthesis was evaluated in an assay, involving calcium ionophore-induced LTB4 biosynthesis expressed human whole blood. Human heparinized whole blood was preincubated with test compounds or vehicle for 15 min at 37° C. followed by calcium ionophore A23187 challenge (final concentration of 8.3 μM) and the reaction terminated after 30 min by adding two volumes of methanol containing prostaglandin B2 as an internal recovery standard. The methanol extract was analyzed for LTB4 using a commercially available radioimmunoassay.
In Vitro Inhibitory Potencies of Compounds
of this Invention Against 5-Lipoxygenase from
Stimulated LTB4 Formation in Human Whole Blood

Setting [1] is: human whole blood, read-out: In vitro inhibition of 5-lipoxygenase / stimulated LTB4 formation (% printed under head "IC50 (10^-6 M)").

Take `CO/N=C(\c1cc(F)cc(OCc2ccc(N(C)C(C)=O)cc2)c1)[C@H]1COC(C)(C)O1` [Example 2, E-(4S)-O-methyl-2,2-dimethyl-4-[(5-fluoro-3-(4-(N-acetyl-N-methylamino)benzyloxy)phenyl)oximinomethyl]-1,3-dioxolane]: the inhibition at 0.2 µM (@ 0.20 μM, human whole blood, read-out: In vitro inhibition of 5-lipoxygenase / stimulated LTB4 formation (% printed under head "IC50 (10^-6 M)")) came out at 82%.

`C=CCN(C)c1ccc(Sc2cccc(/C(=N\OC)[C@H]3COC(C)(C)O3)c2)cc1` [Example 3 (E oxime), E-(4S)-O-methyl-2,2-dimethyl-4-[(3-(4-(N-allyl-N-methylamino)phenylthioxyl)phenyl)oximinomethyl]-1,3dioxolane]: the IC50 – broadly, the concentration at which inhibition is half-maximal – (stimulated LTB4 formation in human whole blood, read-out: IC50 (10^-6 M)) came to 50 nM.

With `CO/N=C(/c1cccc(Sc2ccc(N(C)C(=O)N(C)C)cc2)c1)[C@H]1COC(C)(C)O1` [Example 4, Z-(4S)-O-methyl-2,2-dimethyl-4-[(3-(4-(N',N'-dimethylaminocarbonyl-N-methylamino)phenylthioxyl)phenyl)oximinomethyl]-1,3-dioxolane], the inhibition at 6.25 µM under setting [1] worked out at 100%.

As for `COC[C@@H](OC)[C@@H](OC)c1cc(F)cc(OCc2ccc(N(C)C(=O)N(C)C)cc2)c1` [Example 14, anti-(1S, 2R)-1-[(5-fluoro-3-(4-(N', N'-dimethylaminocarbonyl-N-methylamino)benzyloxy)phenyl)]-1,2,3-trimethoxypropane], under setting [1], the inhibition at 0.1 µM was determined as 49%.

Take `C=CCN(C)c1ccc(Sc2cccc(/C(=N/OC)[C@H]3COC(C)(C)O3)c2)cc1` [Example 3 (Z oxime), Z-(4S)-O-Methyl-2,2-dimethyl-4-[(3-(4-(N-allyl-N-methylamino)phenylthioxyl)phenyl)oximinomethyl]-1,3-dioxolane]: the inhibition at 6.25 µM under setting [1] is 99%.

Turning to `CO/N=C(\c1cccc(Sc2ccc(N(C)C(=O)N(C)C)cc2)c1)[C@H]1COC(C)(C)O1` [Example 5, E-(4S)-O-methyl-2,2-dimethyl-4-[(3-(4-(N',N': dimethylaminocarbonyl-N-methylamino)phenylthioxyl)phenyl)oximinomethyl]-1,3: dioxolane], where the note is “@ 0.78 μM, human whole blood, read-out: In vitro inhibition of 5-lipoxygenase / stimulated LTB4 formation (% printed under head "IC50 (10^-6 M)")”, the inhibition at 0.78 µM came out at 100%.

On to `CO/N=C(\c1cc(F)cc(OCc2ccc(N(C)C(=O)N(C)C)cc2)c1)[C@H]1COC(C)(C)O1` [Example 1, E-(4S)-O-methyl-2,2-dimethyl-4-[(5-fluoro-3-(4-(N',N'-dimethylaminocarbonyl-N-methylamino)benzyloxy)phenyl)oximinomethyl]-1,3-dioxolane], for which the inhibition at 0.1 µM under setting [1] is 100%.
